# Test results taken from US11382892B2, “Method for administration” (Hoffmann-La Roche Inc., priority 2012, dated 2022).
# Where “and” joins values, the source holds several entries; their conditions need not be identical. Equal values may be shown once.
# What was measured:
# [1] = Toxicity summary (body weight, mortality) in SJSA1 xenograft study; format: in vivo
# Text: In the examples below, weight loss was graphically represented as percent change in mean group body weight, using the formula: ((W−W0)/W0)×100, where ‘W’ represents mean body weight of the treated group at a particular day, and ‘W0’ represents mean body weight of the same treated group at initiation of treatment.
# Female athymic Crl:NU-Foxn1nu mice (10/group), obtained from Charles River Laboratories (Wilmington, Del.) were utilized when they were approximately 10-12 weeks of age and weighed 23-25 g. The health of the mice was assessed daily by gross observation and analyses of blood samples taken from sentinel animals housed on shared shelf racks. All animals were allowed to acclimate and recover from any shipping-related stress for a minimum of 72 hours prior to experimental use. Autoclaved water and irradiated food (5058-ms Pico Lab mouse chow, Purina Mills, Richmond, Ind.) were provided ad libitum, and the animals were maintained on a 12 hour light and dark cycle. Cages, bedding and water bottles were autoclaved before use and changed weekly. All animal experiments were conducted in accordance with the Guide for the Care and Use of Laboratory Animals, local regulations, and protocols approved by the Roche Animal Care and Use Committee in an AAALAC accredited facility.
# Treatment duration was 2-4 weeks. Dates of tumor implant, treatment initiation (study start date), and termination of treatment (study end date) can be found in Table 6 below. The starting tumor volume for this study was about 220 mm^3. Tumor volumes and animal body weights were measured three times per week and animals were monitored for clinical signs daily.
# [2] = test system: human acute myeloid leukemia xenograft model MOLM-13; test: Survival / increase in life span in MOLM-13 xenograft; format: in vivo, mice; conditions: 80 mg/kg qd × 5 po
# Protocol: For survival assessment, the percent of increased life space (ILS) was calculated as: 100×[(median survival day of treated group−median survival day of control group)/median survival day of control group]. Median survival was determined utilizing Kaplan Meier survival analysis. Survival in treated groups was statistically compared with the vehicle group and survival comparisons were done between groups using the log-rank test (Graph Pad Prism, La Jolla, Calif., USA). Differences between groups were considered significant when the probability value (p) was ≤0:05.
# All dose levels are reported as the actual dosage of Compound A rather than including drug plus polymer.
# Female SCID:beige mice (10/group), obtained from Charles River Laboratories (Wilmington, Del.) were utilized when they were approximately 8-10 weeks of age and weighed 21-23 g. The health of the mice was assessed daily by gross observation and analyses of blood samples taken from sentinel animals housed on shared shelf racks. All animals were allowed to acclimate and recover from any shipping-related stress for a minimum of 72 hours prior to experimental use. […]
# Treatment duration was initiated on day 3 and was for 2 weeks. Animal body weights were measured three times per week and animals were monitored for clinical signs daily.
# tumor proliferation = test: FLT PET imaging of tumor proliferation in patients; format: in vivo, human; conditions: for FLT PET Average % CBL: cohort average; for FLT PET Median % CBL: cohort median; for FLT PET % CBL Cycle 1: individual patients
# Protocol: The 10 mg tablets contain hypromellose acetate succinate, mannitol, microcrystalline cellulose, croscarmellose sodium, colloidal silicon dioxide, and magnesium stearate. The film-coat consists of hypromellose, titanium dioxide, talc, triacetin, iron oxide yellow, and iron oxide red. The 50 mg, 200 mg, and 400 mg film coated tablets contain the excipients hypromellose acetate succinate, croscarmellose sodium, colloidal silicon dioxide, and magnesium stearate. The film-coat consists of polyvinyl alcohol, titanium dioxide, polyethylene glycol, talc, iron oxide yellow, iron oxide red, and iron oxide black. […]
# A negative percent change from baseline is indicative of an antiproliferative effect.
# [3] = 100 mg/kg QD po 2 on/12 off x 2
# [4] = 200 mg/kg (two 100 mg/kg doses 8 hr apart) 1x/wk po
smiles,measurement,setting,value
"COc1cc(C(=O)O)ccc1NC(=O)[C@@H]1N[C@@H](CC(C)(C)C)[C@](C#N)(c2ccc(Cl)cc2F)[C@H]1c1cccc(Cl)c1F [Compound A, 4-{[(2R,3S,4R,5S)-4-(4-Chloro-2-fluoro-phenyl)-3-(3-chloro-2-fluoro-phenyl)-4-cyano-5-(2,2-dimethyl-propyl)-pyrrolidine-2-carbonyl]-amino}-3-methoxy-benzoic acid]",# of animals ≥20% BWL,[1]; 7.5 mg/kg QD po,0
same,% Change in Body Weight at end of Study Day 29,[1]; 7.5 mg/kg QD po,9.0%
same,Maximum % Weight gain,[1]; 7.5 mg/kg QD po,9.0%
same,Maximum % Weight loss,[1]; 7.5 mg/kg QD po,−0.3%
same,Mortality,[1]; 7.5 mg/kg QD po,0
same,# of animals ≥20% BWL,[1]; 15 mg/kg QD po,0
same,% Change in Body Weight at end of Study Day 29,[1]; 15 mg/kg QD po,5.9%
same,Maximum % Weight gain,[1]; 15 mg/kg QD po,5.9%
same,Maximum % Weight loss,[1]; 15 mg/kg QD po,−2.2%
same,Mortality,[1]; 15 mg/kg QD po,0
same,# of animals ≥20% BWL,[1]; 20 mg/kg QD po 20 on/8 off,0
same,% Change in Body Weight at end of Study Day 29,[1]; 20 mg/kg QD po 20 on/8 off,1.2%
same,Maximum % Weight gain,[1]; 20 mg/kg QD po 20 on/8 off,1.2%
same,Maximum % Weight loss,[1]; 20 mg/kg QD po 20 on/8 off,−3.9%
same,Mortality,[1]; 20 mg/kg QD po 20 on/8 off,0
same,# of animals ≥20% BWL,[1]; 30 mg/kg QD po,0
same,% Change in Body Weight at end of Study Day 29,[1]; 30 mg/kg QD po,1.3%
same,Maximum % Weight gain,[1]; 30 mg/kg QD po,1.3%
same,Maximum % Weight loss,[1]; 30 mg/kg QD po,−0.2%
same,Mortality,[1]; 30 mg/kg QD po,0
same,# of animals ≥20% BWL,[1]; 50 mg/kg 1x/wk po,0
same,% Change in Body Weight at end of Study Day 29,[1]; 50 mg/kg 1x/wk po,6.6%
same,Maximum % Weight gain,[1]; 50 mg/kg 1x/wk po,6.6%
same,Maximum % Weight loss,[1]; 50 mg/kg 1x/wk po,−0.3%
same,Mortality,[1]; 50 mg/kg 1x/wk po,0
same,# of animals ≥20% BWL,[1]; 50 mg/kg QD po 2 on/5 off x 4,0
same,% Change in Body Weight at end of Study Day 29,[1]; 50 mg/kg QD po 2 on/5 off x 4,7.1%
same,Maximum % Weight gain,[1]; 50 mg/kg QD po 2 on/5 off x 4,7.1%
same,Maximum % Weight loss,[1]; 50 mg/kg QD po 2 on/5 off x 4,−0.8%
same,Mortality,[1]; 50 mg/kg QD po 2 on/5 off x 4,0
same,# of animals ≥20% BWL,[1]; 50 mg/kg QD po 4 on/10 off x 2,0
same,% Change in Body Weight at end of Study Day 29,[1]; 50 mg/kg QD po 4 on/10 off x 2,1.2%
same,Maximum % Weight gain,[1]; 50 mg/kg QD po 4 on/10 off x 2,1.2%
same,Maximum % Weight loss,[1]; 50 mg/kg QD po 4 on/10 off x 2,−1.1%
same,Mortality,[1]; 50 mg/kg QD po 4 on/10 off x 2,0
same,# of animals ≥20% BWL,[1]; 80 mg/kg QD po 5 on/23 off,0
same,% Change in Body Weight at end of Study Day 29,[1]; 80 mg/kg QD po 5 on/23 off,8.0%
same,Maximum % Weight gain,[1]; 80 mg/kg QD po 5 on/23 off,8.0%
same,Maximum % Weight loss,[1]; 80 mg/kg QD po 5 on/23 off,0.3%
same,Mortality,[1]; 80 mg/kg QD po 5 on/23 off,0
same,# of animals ≥20% BWL,[1]; 100 mg/kg 1x/wk po,0
same,% Change in Body Weight at end of Study Day 29,[1]; 100 mg/kg 1x/wk po,9.1%
same,Maximum % Weight gain,[1]; 100 mg/kg 1x/wk po,9.1%
same,Maximum % Weight loss,[1]; 100 mg/kg 1x/wk po,4.2%
same,Mortality,[1]; 100 mg/kg 1x/wk po,0
same,# of animals ≥20% BWL,[1]; 100 mg/kg QD po 2 on/5 off x 4,0
same,% Change in Body Weight at end of Study Day 29,[1]; 100 mg/kg QD po 2 on/5 off x 4,1.3%
same,Maximum % Weight gain,[1]; 100 mg/kg QD po 2 on/5 off x 4,1.3%
same,Maximum % Weight loss,[1]; 100 mg/kg QD po 2 on/5 off x 4,−2.8%
same,Mortality,[1]; 100 mg/kg QD po 2 on/5 off x 4,0
same,# of animals ≥20% BWL,[1]; [3],0
same,% Change in Body Weight at end of Study Day 29,[1]; [3],0.9%
same,Maximum % Weight gain,[1]; [3],1.8%
same,Maximum % Weight loss,[1]; [3],−0.6%
same,Mortality,[1]; [3],0
same,# of animals ≥20% BWL,[1]; [4],0
same,% Change in Body Weight at end of Study Day 29,[1]; [4],6.3%
same,Maximum % Weight gain,[1]; [4],6.3%
same,Maximum % Weight loss,[1]; [4],1.9%
same,Mortality,[1]; [4],0
same,% ILS,[2],37%
same,50% Treatment Days (median survival),[2]; vehicle 21 days,28 days
same,FLT PET Average % CBL,tumor proliferation; BM-A1 800 mg bid Qwk × 3,−17.0%
same,FLT PET Median % CBL,tumor proliferation; BM-A1 800 mg bid Qwk × 3,−20.5%
same,FLT PET % CBL Cycle 1,tumor proliferation; BM-A1 800 mg bid Qwk × 3,−28.5% and −21.9% and −29.5% and 8.9% and −19.0% and −11.7%
same,FLT PET Average % CBL,tumor proliferation; BM-A2 1200 mg bid Qwk × 3,−0.9%
same,FLT PET Median % CBL,tumor proliferation; BM-A2 1200 mg bid Qwk × 3,3.2%
same,FLT PET % CBL Cycle 1,tumor proliferation; BM-A2 1200 mg bid Qwk × 3,−5.0% and 21.1% and −31.1% and 11.3% and −73.1%
same,FLT PET Average % CBL,tumor proliferation; BM-B1 400 mg bid × 5 d,−43.4%
same,FLT PET Median % CBL,tumor proliferation; BM-B1 400 mg bid × 5 d,−32.2%
same,FLT PET % CBL Cycle 1,tumor proliferation; BM-B1 400 mg bid × 5 d,−82.5% and −29.3% and −23.4% and −32.2%
same,FLT PET Average % CBL,tumor proliferation; BM-B2 500 mg bid × 3 d,−39.2%
same,FLT PET Median % CBL,tumor proliferation; BM-B2 500 mg bid × 3 d,−34.9%
same,FLT PET % CBL Cycle 1,tumor proliferation; BM-B2 500 mg bid × 3 d,−34.9% and −62.4% and −24.7% and −19.4% and −54.5%
same,FLT PET Average % CBL,tumor proliferation; BM-B3 500 mg qd × 5 d,−29.04%
same,FLT PET Median % CBL,tumor proliferation; BM-B3 500 mg qd × 5 d,−31.0%
same,FLT PET % CBL Cycle 1,tumor proliferation; BM-B3 500 mg qd × 5 d,−56.4% and −34.3% and −21.7% and −31% and −1.8%
same,antiproliferative effect by FLT PET,"tumor proliferation; all doses tested, in particular 3 day and 5 day schedules",antiproliferative effects was seen in all doses tested
